Experiments:
Format in all cases: biochemical
μ-opioid receptor [1] = molecular target: T1, μ-opioid receptor (Homo sapiens (Human), UniProt P35372); experiment: μ-opioid receptor [35S]GTPγS functional assay, HEK-293 or CHO cells (Table 4); conditions: for Emax: relative to DAMGO; for EC50: μ GTP
Method: μ-Opioid Receptor Functional Assay Procedures: [^35S]GTPγS functional assays were conducted using freshly thawed μ-receptor membranes prepared in-house from a cell line expressing recombinant μ opioid receptor in a HEK-293, CHO or U-2 OS cell background, or purchased from a commercial source (Perkin Elmer, Shelton, Conn.; or DiscovRx, Fremont, Calif.). Assay reactions were prepared by sequentially adding the following reagents to binding buffer (100 mM NaCl, 10 mM MgCl2, 20 mM HEPES, pH 7.4) on ice (final concentrations indicated): membrane protein (0.026 mg/mL), saponin ([…]), GDP ([…]) and [^35S]GTPγS (0.20 nM; Perkin Elmer, Shelton, Conn.). The prepared membrane solution (190 μl/well) was transferred to 96-shallow well polypropylene plates containing 10 μl of 20× concentrated stock solutions of the agonist [D-Ala^2, N-methyl-Phe^4 Gly-ol^5]-enkephalin (DAMGO) prepared in dimethyl sulfoxide (DMSO). Plates were incubated for 30 min at about 25° C. with shaking Reactions were terminated by rapid filtration onto 96-well Unifilter GF/B filter plates (Perkin Elmer, Shelton, Conn.) using a 96-well tissue harvester (Perkin Elmer, Shelton, Conn.) followed by three filtration washes with 200 μl of ice-cold wash buffer (10 mM NaH2PO4, 10 mM Na2HPO4, pH 7.4). Filter plates were subsequently dried at 50° C. for 2-3 hours. BetaScint scintillation cocktail (Perkin Elmer, Shelton, Conn.) was added (50 μl/well) and plates were counted using a Packard Top-Count for 1 min/well. Data were analyzed using the sigmoidal dose-response curve fitting functions in GraphPad PRISM v. 3.0, or an in-house function for non-linear, sigmoidal dose-response curve-fitting. [^35S]GTPγS functional assays can also be conducted using freshly thawed μ-receptor membranes prepared from a cell line expressing recombinant μ opioid receptor in a CHO-K1 cell background.
μ GTP Emax (%) is the maximal effect elicited by a compound relative to the effect elicited by DAMGO, a standard μ agonist.
In TABLE 4, activity response of certain Compounds of the Invention to the μ- and κ-opioid receptors was determined as described above for functional assays using HEK-293 or CHO cells.

κ-opioid receptor = κ-opioid receptor (Homo sapiens (Human), UniProt P41145); experiment: κ-opioid receptor [35S]GTPγS functional assay, U-2 OS cells (Table 5); conditions: for Emax: relative to U69,593; for EC50: κ GTP
Method in brief: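 [35S]GTPγS binding in κ receptor membranes (0.026 μg/μl protein) with 10 μg/mL saponin, 3 μM GDP and 0.20 nM [35S]GTPγS in pH 7.4 HEPES/NaCl/MgCl2 buffer. Agonist incubation lasted 30 min at about 25 °C, followed by filtration and scintillation counting. Emax is expressed relative to U69,593.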

μ-opioid receptor [2] = molecular target: T1, μ-opioid receptor; experiment: μ-opioid receptor [35S]GTPγS functional assay, U-2 OS cells (Table 5); conditions: for Emax: relative to DAMGO; for EC50: μ GTP
Method in brief: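 Membranes (0.026 mg/mL) from cells expressing recombinant human μ-opioid receptor in a U-2 OS background were incubated with 0.20 nM [35S]GTPγS, 3 mM GDP and saponin in 20 mM HEPES pH 7.4, 100 mM NaCl, 10 mM MgCl2 for 30 min at about 25 °C. Filter-bound radioactivity counted; sigmoidal dose-response fits gave values, Emax relative to DAMGO.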

| Structure (SMILES) | Emax (μ-opioid receptor [1]) [%] | EC50 (μ-opioid receptor [1]; bound given in μM) [µM] | Emax (κ-opioid receptor) [%] | EC50 (κ-opioid receptor) [nM] | Emax (μ-opioid receptor [2]) [%] | EC50 (μ-opioid receptor [2]) [nM] | EC50 (μ-opioid receptor [1]) [µM] |
| --- | --- | --- | --- | --- | --- | --- | --- |
| COc1ccc2c(c1)C13CCN(CC4CC4)[C@H](C2)[C@]1(O)C[C@@H](N)C3 (stereo in doubt) [Compound 28, (2S,3aS,4R,9bS)-2-amino-12-(cyclopropylmethyl)-8-methoxy-1,2,3,3a,4,5-hexahydro-4,9b-(epiminoethano)cyclopenta[a]naphthalene-3a-ol] | 7.5 | > 20 | 106.7 ± 0.88 | 179 ± 16.4 | 35.7 ± 5.49 | 326 ± 77.9 |  |
| O=C(NCc1ccc(O)cc1)[C@@H]1C[C@]23CCN(CC4CC4)[C@H](Cc4ccc(O)cc42)[C@]3(O)C1 [Compound 39, (2R,3aS,4R,9bS)-12-(cyclopropylmethyl)-3a,8-dihydroxy-N-(4-hydroxybenzyl)-1,2,3,3a,4,5-hexahydro-4,9b-(epimino-ethano)cyclopenta[a]naphthalene-2-carboxamide] | 15 ± 1.73 |  | 91.7 ± 1.86 | 1.85 ± 0.097 | 42 ± 1 | 11.1 ± 0.28 | 0.0375 ± 0.0126 |
| O=C(NCc1ccc(O)cc1)[C@H]1C[C@]23CCN(CC4CC4)[C@H](Cc4ccc(O)cc42)[C@]3(O)C1 [Compound 40, (2S,3aS,4R,9bS)-12-(cyclopropylmethyl)-3a,8-dihydroxy-N-(4-hydroxybenzyl)-1,2,3,3a,4,5-hexahydro-4,9b-(epiminoethano)cyclopenta[a]naphthalene-2-carboxamide] | 1 | > 20 | 97.7 ± 1.86 | 0.73 ± 0.07 | 29.3 ± 1.33 | 1.45 ± 0.068 |  |
| COc1ccc2c(c1)[C@]13CCN(CC4CC4)[C@H](C2)[C@]1(O)C[C@H](C#N)C3 [Compound 25, (2R,3aS,4R,9bS)-12-(cyclopropylmethyl)-3a-hydroxy-8-methoxy-1,2,3,3a,4,5-hexahydro-4,9b-(epiminoethano)-cyclopenta[a]naphthalene-2-carbonitrile] | 12 ± 2.08 |  | 107 ± 4.16 | 234 ± 28.5 | 54.3 ± 4.1 | 228 ± 25.4 | 0.616 ± 0.0409 |
| O=C(NCCc1ccccc1)[C@H]1C[C@]23CCN(CC4CC4)[C@H](Cc4ccc(O)cc42)[C@]3(O)C1 [Compound 51, (2S,3aS,4R,9bS)-12-(cyclopropylmethyl)-3a,8-dihydroxy-N-phenethyl-1,2,3,3a,4,5-hexahydro-4,9b-(epiminoethano)cyclo-penta[a]naphthalene-2-carboxamide] | 43 ± 3.06 |  | 102 ± 2.31 | 0.047 | 87.7 ± 1.2 | 0.13 ± 0.015 | 0.00049 ± 4e-05 |
| NC(=O)CNC(=O)[C@@H]1C[C@]23CCN(CC4CC4)[C@H](Cc4ccc(O)cc42)[C@]3(O)C1 [Compound 64, (2R,3aS,4R,9bS)-N-(2-amino-2-oxoethyl)-12-(cyclopropylmethyl)-3a,8-dihydroxy-1,2,3,3a,4,5-hexahydro-4,9b-(epiminoethano)cyclopenta[a]naphthalene-2-carboxamide] | 3.5 | > 20 | 101 ± 4.98 | 3.51 ± 0.16 | 48.7 ± 0.33 | 6.96 ± 0.27 |  |
| O=C(NCc1ccc(Cl)cc1)[C@@H]1C[C@]23CCN(CC4CC4)[C@H](Cc4ccc(O)cc42)[C@]3(O)C1 [Compound 43, (2R,3aS,4R,9bS)-N-(4-chlorobenzyl)-12-(cyclopropylmethyl)-3a,8-dihydroxy-1,2,3,3a,4,5-hexahydro-4,9b-(epimino-ethano)cyclopenta[a]naphthalene-2-carboxamide] | 11 ± 0.82 |  | 102 ± 5.9 | 0.67 ± 0.02 | 41.3 ± 2.03 | 4.55 ± 0.14 | 0.00835 ± 0.0018 |
| O=C(NCc1cc(F)cc(F)c1)[C@@H]1C[C@]23CCN(CC4CC4)[C@H](Cc4ccc(O)cc42)[C@]3(O)C1 [Compound 49, (2R,3aS,4R,9bS)-12-(cyclopropylmethyl)-N-(3,5-difluorobenzyl)-3a,8-dihydroxy-1,2,3,3a,4,5-hexahydro-4,9b-(epimino-ethano)cyclopenta[a]naphthalene-2-carboxamide] | 10.5 ± 0.29 |  | 108 ± 4.7 | 0.82 ± 0.099 | 42.3 ± 1.45 | 3.73 ± 0.23 | 0.00617 ± 0.00198 |
| CN1CC[C@]23C[C@H](C(N)=O)C[C@@]2(O)[C@H]1Cc1ccc(O)cc13 [Compound 78, (2S,3aS,4R,9bS)-3a,8-dihydroxy-12-methyl-1,2,3,3a,4,5-hexahydro-4,9b-(epiminoethano)cyclopenta-[a]naphthalene-2-carboxamide] | 27.4 ± 1.03 |  | 89.7 ± 4.84 | 973 ± 136 | 94.7 ± 2.4 | 89.3 ± 14.6 | 0.308 ± 0.093 |
| O=C(NCc1ccc(F)cc1)[C@@H]1C[C@]23CCN(CC4CC4)[C@H](Cc4ccc(O)cc42)[C@]3(O)C1 [Compound 48, (2R,3aS,4R,9bS)-12-(cyclopropylmethyl)-N-(4-fluorobenzyl)-3a,8-dihydroxy-1,2,3,3a,4,5-hexahydro-4,9b-(epimino-ethano)cyclopenta[a]naphthalene-2-carboxamide] | -1 | > 20 | 106 ± 2.33 | 1.46 ± 0.29 | 40 ± 1.53 | 3.12 ± 0.27 |  |
| O=C(NCc1ccc(Cl)cc1Cl)[C@H]1C[C@]23CCN(CC4CC4)[C@H](Cc4ccc(O)cc42)[C@]3(O)C1 [Compound 45, (2S,3aS,4R,9bS)-12-(cyclopropylmethyl)-N-(2,4-dichlorobenzyl)-3a,8-dihydroxy-1,2,3,3a,4,5-hexahydro-4,9b-(epimino-ethano)cyclopenta[a]naphthalene-2-carboxamide] | 43.3 ± 4.84 |  | 100 ± 4.62 | 0.018 | 87 ± 0.58 | 0.14 ± 0.018 | 0.00038 ± 4.4e-05 |
| CN1CC[C@]23C[C@@H](C(N)=O)C[C@@]2(O)[C@H]1Cc1ccc(O)cc13 [Compound 77, (2R,3aS,4R,9bS)-3a,8-dihydroxy-12-methyl-1,2,3,3a,4,5-hexahydro-4,9b-(epiminoethano)cyclopenta[a]naphthalene-2-carboxamide] | 19.6 ± 5.65 |  | 65.3 ± 6.44 | 1150 ± 221 | 85 ± 2.52 | 389 ± 74 | 0.58 ± 0.131 |
| COc1ccc2c(c1)[C@]13CCN(CC4CC4)[C@H](C2)[C@]1(O)C[C@@H](C(=O)O)C3 [Compound 15, (2S,3aS,4R,9bS)-12-(cyclopropylmethyl)-3a-hydroxy-8-methoxy-1,2,3,3a,4,5-hexahydro-4,9b-(epiminoethano)-cyclopenta[a]naphthalene-2-carboxylic acid] | 7 | > 20 | 79.7 ± 5.81 | 2900 ± 82.3 | 31.6 ± 3.21 | 343 ± 110 |  |
| O=C([C@@H]1C[C@]23CCN(CC4CC4)[C@H](Cc4ccc(O)cc42)[C@]3(O)C1)N1CCSCC1 [Compound 87, ((2R,3aS,4R,9bS)-12-(cyclopropylmethyl)-3a,8-dihydroxy-1,2,3,3a,4,5-hexahydro-4,9b-(epiminoethano)cyclopenta-[a]naphthalen-2-yl)(thiomorpholino)-methanone] | 1 | > 20 |  |  |  |  |  |
| Oc1ccc2c(c1)C13CCN(CC4CC4)[C@H](C2)[C@]1(O)C[C@H](N(Cc1ccccc1)Cc1ccccc1)C3 (stereo in doubt) [Compound 81, (2R,3aS,4R,9bS)-12-(cyclopropyl-methyl)-2-(dibenzylamino)-2,3,4,5-tetrahydro-4,9b-(epiminoethano)-cyclopenta-[a]naphthalene-3a,8(1H)-diol] | 19 ± 1.53 | > 20 |  |  |  |  |  |

From patent publication US9656962B2, “Ring-contracted morphinans and the use thereof” (Purdue Pharma L.P., priority 2013, dated 2017)
